Six compounds from patent US20160184271A1, “Amino Acid Composition for Use in the Treatment of a PDD” (N.V. Nutricia, priority 2013, published 2016) can be followed below.

The structures appear in SMILES notation.

One assay concerns the target mTOR (Homo sapiens, UniProt P42345). As to the kind of experiment: in vitro effect of amino acids on mTOR. In kind it is biochemical. The note with it: 1 mM rapamycin compared with 10 mM lysine.
For `NCCCC[C@H](N)C(=O)O` [lysine], the “concentration having a comparable inhibitory effect on mTor” value is 10 mM.

The same assay, now with this note: in vitro.
`N[C@@H](Cc1ccccc1)C(=O)O` [Phenylalanine, phenylalanine]: the “effect on mTOR (inhibitory or activating)” value is on record as “inhibitory effect of mTOR”.

As to `NCC(=O)O` [glycine], the “effect on mTOR (inhibitory or activating)” value is listed as “inhibitory effect of mTOR”.

Consider `CC[C@H](C)[C@H](N)C(=O)O` [isoleucine], for which the “effect on mTOR (inhibitory or activating)” value was “mTOR activating effect”.

Consider `CC(C)C[C@H](N)C(=O)O` [leucine], for which the “effect on mTOR (inhibitory or activating)” value is given as “mTOR activating effect”.

Consider `CC(C)[C@H](N)C(=O)O` [valine], for which the “effect on mTOR (inhibitory or activating)” value was “mTOR activating effect”.
